Results taken from patent US20040023884A1, “Biologically active peptides from functional domains of bactericidal/permeability-increasing protein and uses thereof” (priority 1993, published 2004).
Ends that are not written are not given here.

How the values were obtained:
[1] = Heparin binding by tryptophan fluorescence quenching
From the text: (§1) The naturally-occurring amino acid tryptophan can emit light (i.e., it fluoresces) having a wavelength between 300 and 400 nm after excitation with light having a wavelength of between about 280 nm and 290 nm, preferably 285 nm. The amount of emitted light produced by such fluorescence is known to be affected by the local environment, including pH and buffer conditions, as well as binding interactions between proteins and other molecules. Some BPI functional domain peptides derived from domains II and III contain tryptophan residues, and tryptophan fluorescence was used to assay binding interactions between the BPI functional domain peptides of the invention and LPS or heparin.
(§2) Tryptophan fluorescence of the BPI functional domain peptides of the invention was determined in the presence or absence of LPS or heparin using a SPEX Fluorolog fluorimeter. Samples were excited with 285 nm light using a 0.25 nm slitwidth. Emission wavelengths were scanned between 300-400 nm using a 1.25 nm slitwidth. Data were accumulated as the average of three determinations performed over an approximately 5 min time span. Samples were maintained at 25° C. or 37° C. during the course of the experiments using a circulating water bath. Crab endotoxin binding protein (CEBP), a protein wherein the intrinsic fluorescence of tryptophan residues is affected by binding to LPS, was used as a positive control. (See Wainwright et al., 1990, Cellular and Molecular Aspects of Endotoxin Reactions, Nowotny et al., eds., Elsevier Science Publishing B.V., The Netherlands, pp. 315-325).
(§3) Kd values were determined by Scatchard-type Stern-Volmer plots of the quenching data as the negative inverse of the slope of such plots. Comparing the data for BPI.10, BPI.46 and BPI.47, it is seen that as the Kd decreased (indicating an increase in avidity for LPS), the percent fluorescence quenching increased. The differences between these peptides include replacement of basic and polar amino acid residues with non-polar residues in […] as compared with BPI.10. In contrast, as the Kd of heparin binding decreased, a corresponding increase in the percentage of fluorescence quenching was not detected.

[2] = LPS binding by tryptophan fluorescence quenching
From the text: as §1, §2, §3

[3] = system: multi-resistant strain E. coli 19536; assay: Radial diffusion bactericidal assay, multi-antibiotic resistant E. coli 19536; format: cell-based
Method: These studies were conducted substantially following the procedures used in Example 2.
In order to test the bactericidal activity of BPI peptides against multi-antibiotic resistant E. coli, a multi-resistant strain E. coli 19536 (ampR 16 μg/mL; ceftazidimeR>16 μg/mL; ceftriazoneR>16 μg/mL) was tested. This strain is a clinical isolate obtained from the Baxter Microscan® library (Sacramento, Calif.). An overnight culture of E. coli 19536 was tested as described in Example 2 and part A above. Test BPI peptides were 2-fold serially diluted in D-PBS starting at about 1 mg/mL.

[4] = system: Candida albicans; format: cell-based
[5] = system: Salmonella typhurium; assay: Radial diffusion bactericidal assay, Salmonella typhurium; format: cell-based; settings: FIG. 11h
[6] = system: E. coli O4:K12; assay: Broth bactericidal assay, E. coli O4:K12; format: cell-based; settings: FIG. 11k

Substance: KWKAAARFLKKWKAAARFLK [BPI.48]
- Quenching Heparin [1]: 41%
- Kd ([1]; Stern-Volmer plots): 800 nM
- Quenching LPS [2]: 62%
- Kd ([2]; Stern-Volmer plots): 83 nM
- bactericidal activity (in words) [3]: activity against multi-antibiotic resistant E. coli

Substance: KSKVGWLIQLFHKK-NH2 (C-terminus assumed) [BPI.13]
- MIC C. alb [4]: 6.25 µg/mL

Substance: KWKAQKRFLKKSKVGWLIQLFHKK-NH2 (C-terminus assumed) [BPI.30]
- bactericidal activity (in words) [5]: showed bactericidal activity
- bactericidal activity (in words) [6]: showed bactericidal activity
